Key:
[1] = target: T1, hPXR (Homo sapiens (Human), UniProt O75469); experiment: hPXR binding assay; conditions: for inhibition at 10 µM: read-out: Binding (% inhibition at 10 μM)
[2] = target: T1, hPXR; experiment: cell-based hPXR agonistic assay
[3] = target: T1, hPXR; experiment: cell-based hPXR antagonistic assay; conditions: for inhibition at 10 µM: read-out: Antagonist (% inhibition at 10 μM)
[4] = target: T1, hPXR; experiment: cell-based hPXR inverse agonistic assay; conditions: for inhibition at 10 µM: read-out: Inverse agonist (% inhibition at 10 μM)
[5] = read-out: Binding (IC50/μM), hPXR binding assay

T1 sequence (O75469 whole entry): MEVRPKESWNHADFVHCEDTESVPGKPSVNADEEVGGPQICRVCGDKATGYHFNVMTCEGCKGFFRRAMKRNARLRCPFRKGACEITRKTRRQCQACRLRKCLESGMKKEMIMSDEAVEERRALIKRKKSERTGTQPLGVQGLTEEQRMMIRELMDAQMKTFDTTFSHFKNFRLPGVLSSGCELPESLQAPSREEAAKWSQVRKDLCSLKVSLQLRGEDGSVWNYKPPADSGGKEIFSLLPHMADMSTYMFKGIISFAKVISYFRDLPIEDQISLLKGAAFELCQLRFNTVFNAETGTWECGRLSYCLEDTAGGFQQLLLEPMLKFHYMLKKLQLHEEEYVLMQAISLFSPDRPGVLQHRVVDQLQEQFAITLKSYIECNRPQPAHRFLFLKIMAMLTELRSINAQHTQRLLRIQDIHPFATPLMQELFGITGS

IC50 [1] [µM] | EC50 [2] [nM] | IC50 [3] [nM] | inhibition at 10 µM [3] [%] | IC50 [4] [nM] | inhibition at 10 µM [4] [%] | inhibition at 10 µM [1] [%] | IC50 [1, 5] [µM] | Agonist (% activation at 10 μM) ([2]; at 10 μM, rifampicin at 10 μM as 100% activation, DMSO (0.3%) as 0%) | Compound
> 30 | > 30000 | 5320 | 105 | 3730 ± 300 | 126 |  |  |  | COc1ccc(OC)c(-n2nnc(C(=O)Nc3cc(OCCCN4CCN(C)CC4)cc(C(C)(C)C)c3)c2C)c1 [D18]
 | > 30000 | 190 | 107 | 32 ± 7 | 116 | 25 | 0.024 |  | C#CCCCOc1cc(NC(=O)c2nnn(-c3cc(OC)ccc3OC)c2C)cc(C(C)(C)C)c1 [D19]
 | > 30000 | 11500 ± 2810 | 35 | 820 ± 120 | 104 | 42 | 1 |  | CCCCCCCCOc1cc(NC(=O)c2nnn(-c3cc(OC)ccc3OC)c2C)cc(C(C)(C)C)c1 [D20]
 | > 30000 | 2700 | 82 | 330 | 92 | 59 | 1.09 ± 0.31 |  | COc1ccc(OC)c(-n2nnc(C(=O)Nc3cc(OCCCCCCCCI)cc(C(C)(C)C)c3)c2C)c1 [D21, N-(3-(tert-butyl)-5-((8-iodooctyl)oxy)phenyl)-1-(2,5-dimethoxyphenyl)-5-methyl-1H-1,2,3-triazole-4-carboxamide]
 | > 30000 | 2690 ± 930 | 46 | 1070 ± 430 | 53 | 58 | 0.57 |  | COc1ccc(OC)c(-n2nnc(C(=O)Nc3cc(OCCCCCCCCCl)cc(C(C)(C)C)c3)c2C)c1 [D24]
 | > 30000 | 1280 ± 280 | 189 | 240 | 111 | 77 | 1.13 ± 0.36 |  | COc1ccc(OC)c(-n2nnc(C(=O)Nc3cc(OCCCCCCCC=O)cc(C(C)(C)C)c3)c2C)c1 [D26]
 | > 30000 | 2140 ± 360 | 92 | 1140 ± 580 | 91 | 70 | 1 ± 0.08 |  | COCCOCCOCCOCCOc1cc(NC(=O)c2nnn(-c3cc(OC)ccc3OC)c2C)cc(C(C)(C)C)c1 [D27]
 | > 30000 | 1090 ± 300 | 107 | 310 | 105 | 25 | 0.31 ± 0.17 |  | COC(=O)CCCOc1cc(NC(=O)c2nnn(-c3cc(OC)ccc3OC)c2C)cc(C(C)(C)C)c1 [D29]
 | > 30000 | 920 ± 120 | 104 | 190 | 118 | 71 | 1.71 ± 0.33 |  | COc1ccc(OC)c(-n2nnc(C(=O)Nc3cc(OCCCC(=O)O)cc(C(C)(C)C)c3)c2C)c1 [D30]
 | > 30000 | 430 | 105 | 100 | 126 | 73 | 0.16 |  | COc1ccc(OC)c(-n2nnc(C(=O)Nc3cc(OCC(=O)OC(C)(C)C)cc(C(C)(C)C)c3)c2C)c1 [D31, tert-butyl 2-(3-(tert-butyl)-5-(1-(2,5-dimethoxyphenyl)-5-methyl-1H-1,2,3-triazole-4-carboxamido)phenoxy)acetate]
> 30 | > 30000 | > 30000 |  | > 30000 |  |  |  |  | COc1ccc(OC)c(-n2nnc(C(=O)Nc3cc(OCC(=O)O)cc(C(C)(C)C)c3)c2C)c1 [D32]
> 30 | > 30000 | 19700 ± 7630 | 84 | > 30000 |  |  |  |  | COc1ccc(OC)c(-n2nnc(C(=O)Nc3cc(OCCOCCOCCOCCN)cc(C(C)(C)C)c3)c2C)c1 [D35]
> 30 | 320 ± 100 | > 30000 |  | > 30000 |  |  |  | (30 ± 7)% | COc1ccc(-n2nnc(C(=O)Nc3cccc(N4CCCC4)c3)c2C)cc1 [E1, 1-(4-methoxyphenyl)-5-methyl-N-(3-(pyrrolidin-1-yl)phenyl)-1H-1,2,3-triazole-4-carboxamide]
